Measured values taken from ChEMBL document CHEMBL1201862, “PubChem BioAssay data set” (2004).
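1) Cells in 96-well plates. 2) Compound, 48 h, 5 concentrations. 3) Linear interpolation between surrounding doses. 4) Unreached endpoint = highest concentration. At the GI50, growth is halved.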 Active and inactive are the calls of the source. Rule as the data show it: active = GI50 up to about 1.1 µM and inactive = higher.

Experiments:
Experiment in all cases: NCI tumour cell line growth inhibition, 48 h
UACC-62 = system: UACC-62
SK-OV-3 = system: SK-OV-3
HCC 2998 = system: HCC 2998
UO-31 = system: UO-31
MDA-N = system: MDA-N
SF-539 = system: SF-539
OVCAR-5 = system: OVCAR-5
SNB-75 = system: SNB-75
SK-MEL-2 = system: SK-MEL-2
SW-620 = system: SW-620
ACHN = system: ACHN
U-251 = system: U-251
Malme-3M = system: Malme-3M
LOX IMVI = system: LOX IMVI
PC-3 = system: PC-3
IGROV-1 = system: IGROV-1
HOP-62 = system: HOP-62
MDA-MB-435 = system: MDA-MB-435
NCI-H226 = system: NCI-H226

Measured: GI50

O=C1/C(=C\c2cccc(Oc3ccccc3)c2)S(=O)(=O)C(c2ccccc2)N1c1cccc(Cl)c1 (configuration not stated)
inactive: UACC-62 57.7 µM | SK-OV-3 66.4 µM | HCC 2998 > 100 µM | UO-31 34.7 µM | MDA-N 25.9 µM | SF-539 36.1 µM | OVCAR-5 > 100 µM | SNB-75 > 100 µM | SK-MEL-2 > 100 µM | SW-620 25.1 µM | ACHN 71.8 µM | U-251 50.4 µM | Malme-3M > 100 µM | LOX IMVI 19 µM | PC-3 > 100 µM | IGROV-1 38.9 µM | HOP-62 98.2 µM | MDA-MB-435 38.5 µM

CC1CNC(c2ccc(CN3CCC(C4CCN(Cc5ccc(C6=NC(C)CN6)cc5)CC4)CC3)cc2)=N1 (configuration not stated)
inactive: UACC-62 19.9 µM | SK-OV-3 16.3 µM | HCC 2998 14.6 µM | UO-31 26.5 µM | MDA-N 21.3 µM | SF-539 20.3 µM | OVCAR-5 24.9 µM | SNB-75 16.6 µM | SK-MEL-2 19.1 µM | SW-620 18.2 µM | ACHN 26.5 µM | U-251 16 µM | Malme-3M 23.9 µM | LOX IMVI 22.7 µM | PC-3 17.7 µM | IGROV-1 37.2 µM | HOP-62 14.9 µM | MDA-MB-435 20.8 µM

CCCNC1=Nc2ccccc2[C@@H]2N(C)c3ccccc3C(C)C[C@]12C (some centres not stated)
inactive: UACC-62 16.1 µM | HCC 2998 11.1 µM | UO-31 27.9 µM | MDA-N 20.5 µM | SF-539 16.4 µM | OVCAR-5 15.1 µM | SNB-75 15.7 µM | SK-MEL-2 13.2 µM | SW-620 16.5 µM | ACHN 23.8 µM | Malme-3M 16.6 µM | LOX IMVI 13.3 µM | PC-3 16 µM | IGROV-1 17.8 µM | HOP-62 16.4 µM | MDA-MB-435 17.8 µM | NCI-H226 34 µM

CC1=CCC[C@H]2[C@](C)(CC3=CC(=O)C4SCCSC4C3=O)[C@@H](C)CC[C@]12C (some centres not stated)
inactive: UACC-62 14.8 µM | HCC 2998 21.9 µM | UO-31 17.6 µM | MDA-N 11.4 µM | SF-539 21 µM | OVCAR-5 18.6 µM | SNB-75 27.7 µM | SK-MEL-2 1.71 µM | SW-620 17.1 µM | ACHN 18.2 µM | U-251 14.5 µM | LOX IMVI 11.2 µM | PC-3 13.5 µM | IGROV-1 32 µM | HOP-62 15 µM | MDA-MB-435 8.09 µM | NCI-H226 15.9 µM

CC(C)(CC(O)C#N)/[N+]([O-])=[N+](\[O-])C(C)(C)CC(O)C#N (configuration not stated)
inactive: UACC-62 16 µM | SK-OV-3 29.8 µM | HCC 2998 17.2 µM | UO-31 26.9 µM | MDA-N 20.7 µM | OVCAR-5 23.5 µM | SNB-75 23.7 µM | SK-MEL-2 43 µM | SW-620 12 µM | ACHN 23.2 µM | U-251 26.5 µM | Malme-3M 21.6 µM | LOX IMVI 17.6 µM | PC-3 28.2 µM | IGROV-1 21.2 µM | HOP-62 19.4 µM | MDA-MB-435 32.9 µM | NCI-H226 25.6 µM

O=[N+]([O-])c1ccc2c(c1)nc1n2C(c2c(F)cccc2F)SC1 (configuration not stated)
inactive: UACC-62 > 100 µM | SK-OV-3 > 100 µM | HCC 2998 > 100 µM | MDA-N > 100 µM | SF-539 > 100 µM | OVCAR-5 > 100 µM | SNB-75 84.7 µM | SK-MEL-2 > 100 µM | SW-620 > 100 µM | ACHN > 100 µM | U-251 > 74.1 µM | Malme-3M > 100 µM | LOX IMVI > 100 µM | PC-3 > 100 µM | IGROV-1 > 100 µM | HOP-62 > 100 µM | MDA-MB-435 > 100 µM

C[C@H](C1CC2(C)OC2(C)C(=O)O1)[C@H]1CC[C@H]2[C@@H]3[C@@H]4O[C@@H]4[C@@]4(O)CC=CC(=O)[C@]4(C)[C@H]3CC[C@]12C (some centres not stated)
inactive: UACC-62 > 50 µM | SK-OV-3 > 50 µM | HCC 2998 > 50 µM | UO-31 12.3 µM | MDA-N > 50 µM | OVCAR-5 > 50 µM | SNB-75 8.18 µM | SK-MEL-2 > 50 µM | SW-620 > 50 µM | ACHN > 50 µM | U-251 > 50 µM | LOX IMVI > 50 µM | PC-3 > 50 µM | IGROV-1 > 50 µM | HOP-62 37.8 µM | MDA-MB-435 > 50 µM | NCI-H226 > 50 µM
